How the values were obtained:
Format in all cases: biochemical
RET wt = biological target: T1, RET wt (Homo sapiens, UniProt P07949); assay: In vitro kinase activity assay (mobility shift assay), RET wild type; settings: ATP 16 μM, reaction time 60 min
T1 construct: purchased Carna 08-159
How it was run: (§1)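 Compounds: 10-point 3-fold series starting 1000 nM, preincubated 10 min RT with kinase; ATP + substrate then added, 30-240 min RT. Caliper conversion read, normalised to no-enzyme and no-compound controls, dose-response fit gives IC50.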

RET G810R = biological target: T2, RET G810R (Homo sapiens, UniProt P07949, G810R); assay: In vitro kinase activity assay (mobility shift assay), RET G810R; settings: ATP 201 μM, reaction time 4 h
T2 construct: purchased Proqinase 1724-0000-1
How it was run: as §1

SRC = biological target: T3, SRC (Homo sapiens, UniProt P12931); assay: In vitro kinase activity assay (mobility shift assay), SRC; settings: ATP 19 μM, reaction time 30 min
T3 construct: purchased Carna 08-173
Description: (§2) The IC50 (half inhibitory concentration) values of the compounds were used as an indicator to evaluate the inhibitory effect of the compound on RET wild-type, RET mutant, TRKa, SRC, BTK and/or mutated BTK kinase.
(§3) Using the method of Mobility shift assay, the compounds were tested for inhibitory activity against the following kinases: RET wild type, RET mutant, TRKa, SRC, BTK and/or mutated BTK. The initial concentration of the test compound was 1000 nM, 3-fold dilution, 10 concentrations, detected in a well for each concentration.
(§4) 20 mM hydroxyethylpiperazineethanesulfonic acid (Hepes) (pH 7.5) buffer, 10 mM MgCl2, 1 mM ethylene glycol bis(aminoethyl ether)tetraacetic acid (EGTA), 0.02% polyoxyethylene lauryl ether (Brij35), 0.02 mg/ml […] (BSA), 0.1 mM Na3VO4, 2 mM dithiothreitol (DTT), 1% DMSO.
(§5) The test compounds were dissolved in 100% dimethyl sulfoxide (DMSO) system, and prepared as 10 mM for use, and stored in a nitrogen cabinet away from light.
(§6) • (1) Preparing 1× kinase reaction buffer. • (2) Preparation of compound concentration gradient: the initial concentration of the compounds was 1000 nM, which was diluted as 100-fold final concentration of solution in 100% dimethyl sulfoxide (DMSO) in a 384-well plate. The compound was accurately 3-fold diluted with the kinase buffer solution, 10 concentrations in total, and the final concentration was 0.0508 nM. The 100-fold final concentration of solution in 100% dimethyl sulfoxide (DMSO) was obtained by dilution in 384 source plate. The liquid separator Echo 550 was used to transfer 250 nl of 100-fold final concentration of compound to the target 384 well plate. 250 nl of DMSO was added to the positive and negative control wells. • (3) 2.5-fold final concentration of kinase solution was prepared by the 1× kinase buffer. • (4) 10 4, of 2.5-fold final concentration of kinase solution was added to the compound well and the positive control well, respectively; 10 4, of 1× kinase buffer was added to the negative control well. • (5) After centrifuging at 1000 rpm for 30 second, the reaction plate was shaken and mixed, followed by incubation at room temperature for 10 min. • (6) a mixed solution of 25/15-fold final concentration of adenosine triphosphate (ATP) and kinase substrate was prepared by 1× kinase buffer. • (7) The mixed solution (15 μL) of 25/15-fold final concentration of adenosine triphosphate (ATP) and substrate was added to initiate the reaction. • (8) 384-well plate was centrifuged at 1000 rpm for 30 second, shaken and mixed well, and then incubated at room temperature for 30-240 min. • (9) After stopping the kinase reaction, the plate was centrifugated at 1000 rpm for 30 second, shaken and mixed well. • (10)The conversion rate was read with Caliper EZ Reader.
(§7) wherein Conversion%_sample is the conversion rate reading of the sample; Conversion%_min: the mean value of negative control wells, representing the conversion rate reading of wells without enzymes; Conversion%_max: the mean value of positive control wells, representing the conversion rate reading of wells without compound inhibition.
(§8) The log value of concentration was taken as the X axis, and the percentage inhibition rate was taken as the Y axis. Graphpad 6.0 analysis software was used to fit the dose-response curve, so as to obtain the IC50 value of each compound on the enzyme activity

BTK = biological target: T4, BTK (Homo sapiens, UniProt Q06187); assay: In vitro kinase activity assay (mobility shift assay), BTK; settings: ATP 71 μM, reaction time 30 min
T4 construct: purchased Carna 08-180
How it was run: as §1

BTK C481S = biological target: T5, BTK C481S (Homo sapiens, UniProt Q06187, C481S); assay: In vitro kinase activity assay (mobility shift assay), BTK C481S; settings: ATP 90 μM, reaction time 30 min
T5 construct: purchased Carna 08-547
Description: as §2, §3, §4, §5, §6, §7, §8

RET V804M = biological target: T6, RET V804M (Homo sapiens, UniProt P07949, V804M); assay: In vitro kinase activity assay (mobility shift assay), RET V804M; settings: ATP 5.4 μM, reaction time 60 min
T6 construct: purchased signalchem R02-12GG
How it was run: as §1

TRKa = biological target: T7, TRKa (Homo sapiens, UniProt P04629); assay: In vitro kinase activity assay (mobility shift assay), TRKa; settings: ATP 47.8 μM, reaction time 30 min
T7 construct: purchased Carna 08-186
How it was run: as §1

T6 sequence (P07949 29-1114 V804M): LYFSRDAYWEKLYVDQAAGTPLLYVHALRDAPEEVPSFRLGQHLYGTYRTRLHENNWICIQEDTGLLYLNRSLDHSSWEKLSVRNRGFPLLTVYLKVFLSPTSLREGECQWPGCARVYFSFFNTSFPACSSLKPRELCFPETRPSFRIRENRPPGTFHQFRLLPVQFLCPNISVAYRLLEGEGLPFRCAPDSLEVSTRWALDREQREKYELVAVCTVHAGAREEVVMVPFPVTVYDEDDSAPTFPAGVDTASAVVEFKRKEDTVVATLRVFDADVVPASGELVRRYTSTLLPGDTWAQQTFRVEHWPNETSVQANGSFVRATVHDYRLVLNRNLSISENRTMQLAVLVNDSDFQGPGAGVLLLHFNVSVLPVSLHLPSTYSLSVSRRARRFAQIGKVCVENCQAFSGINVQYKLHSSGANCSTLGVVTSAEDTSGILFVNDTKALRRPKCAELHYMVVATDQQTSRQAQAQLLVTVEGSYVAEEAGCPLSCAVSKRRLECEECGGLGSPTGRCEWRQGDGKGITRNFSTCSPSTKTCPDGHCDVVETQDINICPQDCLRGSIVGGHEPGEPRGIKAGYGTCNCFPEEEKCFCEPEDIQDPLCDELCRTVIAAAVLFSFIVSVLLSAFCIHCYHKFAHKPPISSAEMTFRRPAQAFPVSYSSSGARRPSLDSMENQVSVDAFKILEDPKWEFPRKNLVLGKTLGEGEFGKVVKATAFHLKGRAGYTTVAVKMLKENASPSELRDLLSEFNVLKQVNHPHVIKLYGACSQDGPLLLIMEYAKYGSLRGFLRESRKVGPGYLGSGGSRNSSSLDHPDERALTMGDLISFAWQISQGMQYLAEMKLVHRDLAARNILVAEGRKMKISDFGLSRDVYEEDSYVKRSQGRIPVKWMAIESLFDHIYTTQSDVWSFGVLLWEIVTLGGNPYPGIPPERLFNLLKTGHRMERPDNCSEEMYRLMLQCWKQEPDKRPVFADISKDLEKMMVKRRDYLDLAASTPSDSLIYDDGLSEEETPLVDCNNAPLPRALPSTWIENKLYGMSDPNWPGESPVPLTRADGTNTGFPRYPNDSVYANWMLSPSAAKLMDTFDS
T2 sequence (P07949 29-1114 G810R): as the sequence (P07949 29-1114 V804M) above, with M776V, G782R counted along it
T5 sequence (Q06187 whole entry C481S): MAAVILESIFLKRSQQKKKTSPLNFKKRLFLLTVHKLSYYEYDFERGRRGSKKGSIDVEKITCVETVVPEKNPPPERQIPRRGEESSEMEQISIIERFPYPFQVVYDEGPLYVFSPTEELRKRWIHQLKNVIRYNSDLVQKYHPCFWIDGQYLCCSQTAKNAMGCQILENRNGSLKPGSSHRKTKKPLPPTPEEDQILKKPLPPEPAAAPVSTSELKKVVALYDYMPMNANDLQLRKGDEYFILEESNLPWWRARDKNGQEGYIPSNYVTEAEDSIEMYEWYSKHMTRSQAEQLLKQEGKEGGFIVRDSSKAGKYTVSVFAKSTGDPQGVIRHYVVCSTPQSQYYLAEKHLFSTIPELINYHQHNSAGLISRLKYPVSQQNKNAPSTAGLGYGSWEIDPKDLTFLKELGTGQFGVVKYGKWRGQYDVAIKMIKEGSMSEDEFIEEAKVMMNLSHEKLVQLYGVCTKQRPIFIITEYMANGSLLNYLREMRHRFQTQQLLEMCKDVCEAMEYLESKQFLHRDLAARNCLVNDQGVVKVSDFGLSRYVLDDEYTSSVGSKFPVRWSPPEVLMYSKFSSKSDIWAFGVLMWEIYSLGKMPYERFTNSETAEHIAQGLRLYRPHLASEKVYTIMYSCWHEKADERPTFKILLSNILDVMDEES
T1 sequence (P07949 29-1114): as the sequence (P07949 29-1114 V804M) above, with M776V counted along it
T7 sequence (P04629 33-796): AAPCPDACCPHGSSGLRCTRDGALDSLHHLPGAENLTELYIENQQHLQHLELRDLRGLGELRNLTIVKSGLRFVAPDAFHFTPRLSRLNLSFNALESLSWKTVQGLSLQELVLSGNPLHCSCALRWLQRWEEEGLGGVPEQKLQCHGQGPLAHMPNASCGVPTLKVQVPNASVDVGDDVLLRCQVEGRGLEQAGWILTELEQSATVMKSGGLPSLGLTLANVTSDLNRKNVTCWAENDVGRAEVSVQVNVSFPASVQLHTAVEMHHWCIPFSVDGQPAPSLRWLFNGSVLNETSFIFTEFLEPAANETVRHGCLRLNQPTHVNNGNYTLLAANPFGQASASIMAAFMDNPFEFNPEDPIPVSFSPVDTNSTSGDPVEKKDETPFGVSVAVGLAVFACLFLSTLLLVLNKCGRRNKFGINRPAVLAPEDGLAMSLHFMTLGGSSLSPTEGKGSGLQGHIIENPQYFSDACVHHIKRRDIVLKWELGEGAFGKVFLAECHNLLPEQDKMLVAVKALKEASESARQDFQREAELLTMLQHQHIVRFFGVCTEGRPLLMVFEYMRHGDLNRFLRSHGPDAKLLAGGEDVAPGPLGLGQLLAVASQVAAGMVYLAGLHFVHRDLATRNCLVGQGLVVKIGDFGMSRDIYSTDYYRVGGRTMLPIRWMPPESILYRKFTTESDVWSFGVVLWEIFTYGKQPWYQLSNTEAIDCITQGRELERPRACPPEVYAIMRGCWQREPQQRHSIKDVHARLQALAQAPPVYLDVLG
T3 sequence (P12931 whole entry): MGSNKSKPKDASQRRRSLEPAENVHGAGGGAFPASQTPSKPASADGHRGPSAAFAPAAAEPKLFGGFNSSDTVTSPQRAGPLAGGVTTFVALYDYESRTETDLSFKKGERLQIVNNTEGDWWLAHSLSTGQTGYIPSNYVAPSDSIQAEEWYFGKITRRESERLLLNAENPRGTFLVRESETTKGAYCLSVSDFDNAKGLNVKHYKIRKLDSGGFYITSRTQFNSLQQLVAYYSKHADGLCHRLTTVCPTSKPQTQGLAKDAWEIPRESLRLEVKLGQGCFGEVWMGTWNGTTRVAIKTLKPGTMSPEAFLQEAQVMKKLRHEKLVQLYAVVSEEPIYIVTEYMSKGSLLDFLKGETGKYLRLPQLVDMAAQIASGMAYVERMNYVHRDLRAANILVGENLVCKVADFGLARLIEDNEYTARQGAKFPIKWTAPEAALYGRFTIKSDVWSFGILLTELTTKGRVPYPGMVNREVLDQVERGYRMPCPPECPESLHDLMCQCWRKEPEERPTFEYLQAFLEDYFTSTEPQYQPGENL
T4 sequence (Q06187 whole entry): as the sequence (Q06187 whole entry C481S) above, with S481C counted along it

`Cc1ccc(-c2c3nc4c(cnn4c2N)C(=O)NC[C@H](C)Oc2ncc(F)cc2CN3)cc1` [Example 56] showed an IC50 (RET wt) of 1.2 nM, an IC50 (RET G810R) of 49.7 nM and an IC50 (SRC) of 0.13 nM. It also gave an IC50 (BTK) of 1.5 nM and an IC50 (BTK C481S) of 0.96 nM.

`C[C@H]1CNC(=O)c2cnn3cc(-c4ccc(Oc5ccccc5)cc4)c(nc23)NCc2cc(F)cnc2O1` [Compound 10, (S, 1^3E, 1^4E)-1^6-(4-phenoxyphenyl)-4^5-fluoro-6-methyl-5-oxa-2,8-diaza-1(5,3)-pyrazolo[1,5-a]pyrimidina-4(3,2)-pyridinacyclononaphan-9-one] gave an IC50 (RET wt) of 144 nM, an IC50 (RET G810R) greater than 10000 nM and an IC50 (RET V804M) greater than 10000 nM. For the same compound, the IC50 (TRKa) was greater than 10000 nM, the IC50 (SRC) was greater than 10000 nM and the IC50 (BTK) was greater than 10000 nM. It also gave an IC50 (BTK C481S) greater than 10000 nM.

`CNc1ccc(-c2c3nc4c(cnn4c2N)C(=O)NC[C@H](C)Oc2ncc(F)cc2CN3)cc1` [Example 54, (S, 1^3E, 1^4E)-1^7-amino-4^5-fluoro-6-methyl-1^6-(4-(methylamino)phenyl)-5-oxo-2,8-diaza-1(5,3)-pyrazolo[1,5-a]pyrimidin-4(3,2)-pyridinacyclononaphan-9-one] showed an IC50 (RET wt) of 105 nM, an IC50 (RET G810R) greater than 1000 nM and an IC50 (RET V804M) greater than 1000 nM. The IC50 (SRC) was 2.1 nM, the IC50 (BTK) was 48 nM and the IC50 (BTK C481S) was 104 nM.

For `CC(=O)Nc1ccc(-c2cn3ncc4c3nc2NCc2cc(F)cnc2O[C@@H](C)CNC4=O)cc1` [Compound 18], the IC50 (RET wt) was greater than 10000 nM, the IC50 (RET G810R) was greater than 10000 nM and the IC50 (RET V804M) was greater than 10000 nM. The IC50 (SRC) was greater than 10000 nM, the IC50 (BTK) was greater than 10000 nM and the IC50 (BTK C481S) was greater than 10000 nM.

Compound `CNC(=O)c1ccc(-c2cn3ncc4c3nc2NCc2cc(F)cnc2O[C@@H](C)CNC4=O)cc1` [Compound 19, 4-((S, 1^3E, 1^4E)-4^5-fluoro-6-methyl-9-oxo-5-oxa-2,8-diaza-1(5,3)-pyrazolo[1,5-a]pyrimidin-4(3,2)-pyridinacyclononaphan-1^6-yl)—N-methylbenz amide] has an IC50 (RET wt) of 48.9 nM, an IC50 (RET G810R) greater than 10000 nM and an IC50 (RET V804M) greater than 10000 nM. For the same compound, the IC50 (SRC) was greater than 10000 nM, the IC50 (BTK) was greater than 10000 nM and the IC50 (BTK C481S) was greater than 10000 nM.

`COC(=O)Nc1ccc(-c2cn3ncc4c3nc2NCc2cc(F)cnc2O[C@@H](C)CNC4=O)c(Cl)c1` [Compound 27] was tested, and the IC50 (RET wt) was 0.629 nM, the IC50 (RET G810R) was 17.2 nM and the IC50 (RET V804M) was 3.25 nM. The IC50 (SRC) was 38.4 nM, the IC50 (BTK) was 15.4 nM and the IC50 (BTK C481S) was 16.9 nM.

In the case of `C[C@H]1CNC(=O)c2cnn3cc(-c4ccccc4Cl)c(nc23)NCc2cc(F)cnc2O1` [Compound 4, (S, 1^3E, 1^4E)-1^6-(2-chlorophenyl)-4^5-fluoro-6-methyl-5-oxa-2,8-diaza-1(5,3)-pyrazolo[1,5-a]pyrimidina-4(3,2)-pyridinacyclononaphan-9-one], the IC50 (RET wt) is reported as 2.2 nM, the IC50 (RET G810R) is reported as 21 nM and the IC50 (RET V804M) is reported as 161 nM. The IC50 (TRKa) was 294 nM, the IC50 (SRC) was 0.096 nM and the IC50 (BTK) was 3.39 nM. It also gave an IC50 (BTK C481S) of 9.84 nM.

`C[C@H]1CNC(=O)c2cnn3c(N)c(-c4ccccc4)c(nc23)NCc2cc(F)cnc2O1` [Compound 28, (S, 1^3E, 1^4E)-1^7-amino-4^5-fluoro-6-methyl-1^6-phenyl-5-oxa-2,8-diaza-1(5,3)-pyrazolino[1,5-a]pyrimidin-4(3,2)-pyridinacyclononaphan-9-one] gave an IC50 (RET wt) of 0.359 nM, an IC50 (RET G810R) of 12 nM and an IC50 (RET V804M) of 9.18 nM. For the same compound, the IC50 (SRC) was 0.456 nM, the IC50 (BTK) was 1.11 nM and the IC50 (BTK C481S) was 0.96 nM.

`C[C@H]1CNC(=O)c2cnn3cc(-c4ccccc4)c(nc23)NCc2cc(F)cnc2O1` [Example 1, (S, 1^3E, 1^4E)-4^5-fluoro-6-methyl-1^6-phenyl-5-oxa-2,8-diaza-1(5,3)-pyrazolo[1,5-a]pyrimidina-4(3,2)-pyridinacyclononaphan-9-one] was tested, and the IC50 (RET wt) was 11 nM, the IC50 (RET G810R) was 42.1 nM and the IC50 (RET V804M) was greater than 10000 nM. For the same compound, the IC50 (TRKa) was greater than 10000 nM, the IC50 (SRC) was 10.8 nM and the IC50 (BTK) was 33.5 nM. For the same compound, the IC50 (BTK C481S) was 31.3 nM.

In the case of `COC(=O)Nc1ccc(-c2cn3ncc4c3nc2NCc2cc(F)cnc2O[C@@H](C)CNC4=O)cc1` [Compound 30, methyl (4-((S, 1^3E, 1^4E)-4^5-fluoro-6-methyl-9-oxo-5-oxa-2,8-diaza-1(5,3)-pyrazolo[1,5-a]pyrimidin-4(3,2)-pyridinacyclononaphan-1^6-yl)phenyl) carbamate], the IC50 (RET wt) is reported as 5.1 nM, the IC50 (RET G810R) is reported as 15.1 nM and the IC50 (RET V804M) is reported as 76 nM. The IC50 (TRKa) was greater than 10000 nM, the IC50 (SRC) was 3110 nM and the IC50 (BTK) was 5180 nM.

Source: patent US20230219978A1, “COMPOUND HAVING MACROCYCLIC STRUCTURE AND USE THEREOF” (SCINNOHUB PHARMACEUTICAL CO., LTD, priority 2020, published 2023)
